Source: patent publication US20230212549A1, “COMPOUNDS COMPRISING A […] LIGAND AND USE THEREOF” (priority 2021, published 2023)
pIC50, pKd: −log10 of the molar value. Numbered stars: 1 amine (or outer) side, 2 acyl side, 3 side chain; on linkers, the order of the positions; unused ones are H or OH. Bridge positions count the residues as written; N and C are the ends. Square brackets hold non-standard residues; d marks the D form. Peptide text beside a SMILES is read from it. * marks the point of attachment. X17 = NC(=O)[C@H](CCCCNC(=O)CN1CCN(CC(=O)O)CCN(CC(=O)O)CCN(CC(=O)O)CC1)NC(=O)CCC(=O)NCCCOCCOCCOCCCN*; TBMB(SCH2CH2NH-DOTA) = O=C(O)CN1CCN(CC(=O)O)CCN(CC(=O)NCCSCc2cc(C[*:1])cc(C[*:2])c2)CCN(CC(=O)O)CC1; 1Nal = N[C@@H](Cc1cccc2ccccc12)C(=O)O; mXylylene = c1cc(C[*:1])cc(C[*:2])c1; Hexanoyl = CCCCCC(=O)*; CO = O=C([*:1])[*:2]; Sar = CNCC(=O)O; NHBu = CCCCN*

Key:
Human recombinant FAP [1] = molecular target: T1, Human recombinant FAP (Homo sapiens, UniProt Q12884); experiment: FRET-based FAP protease activity assay; format: biochemical; design: purchased R&D systems 3715-SE
Human recombinant FAP [2] = molecular target: T1, Human recombinant FAP; experiment: Surface plasmon resonance (Biacore) assay; format: binding
[3] = molecular target: T2, FAP-expressing human WI-38 fibroblasts (Homo sapiens, UniProt Q12884); experiment: Competitive FACS binding assay
T2 construct: FAP-expressing human WI-38 fibroblasts (ECACC) were cultured in EMEM; host or cells: WI-38 human fibroblasts
Description: Cells were analyzed in an Attune NxT flow cytometer. […] […].
Cells were analyzed in an Attune NxT flow cytometer. […]

in vivo = details: female, athymic nude, mouse, iv
[4] = pIC50 Category (Activity), FRET-peptide substrate, 37° C.
[5] = pIC50 Category (Activity), FRET-based FAP protease activity assay, recombinant human FAP, 37° C.

T2 sequence (Q12884 whole entry): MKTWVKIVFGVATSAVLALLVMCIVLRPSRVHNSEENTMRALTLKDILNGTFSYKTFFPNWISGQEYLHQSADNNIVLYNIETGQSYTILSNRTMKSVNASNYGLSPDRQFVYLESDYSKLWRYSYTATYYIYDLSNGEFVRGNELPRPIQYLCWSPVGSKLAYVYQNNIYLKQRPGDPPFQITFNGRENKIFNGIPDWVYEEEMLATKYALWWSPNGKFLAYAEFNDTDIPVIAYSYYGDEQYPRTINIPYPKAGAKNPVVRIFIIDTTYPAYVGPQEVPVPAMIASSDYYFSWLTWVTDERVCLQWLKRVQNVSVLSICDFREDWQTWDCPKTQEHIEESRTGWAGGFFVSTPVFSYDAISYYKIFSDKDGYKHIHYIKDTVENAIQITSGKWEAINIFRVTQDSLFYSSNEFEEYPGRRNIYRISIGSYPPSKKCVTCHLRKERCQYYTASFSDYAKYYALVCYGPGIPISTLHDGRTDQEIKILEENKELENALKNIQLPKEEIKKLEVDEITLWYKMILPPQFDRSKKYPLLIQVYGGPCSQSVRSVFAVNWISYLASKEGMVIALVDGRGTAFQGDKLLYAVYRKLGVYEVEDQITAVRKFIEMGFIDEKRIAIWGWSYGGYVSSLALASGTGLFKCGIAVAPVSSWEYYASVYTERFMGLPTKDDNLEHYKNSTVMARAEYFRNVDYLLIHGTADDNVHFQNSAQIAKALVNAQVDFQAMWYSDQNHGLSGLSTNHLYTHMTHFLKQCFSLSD
T1 sequence (Q12884 whole entry): as above

pIC50 (Human recombinant FAP [1]; [4]) | pKd (Human recombinant FAP [2]) | pIC50 [3] | pIC50 (Human recombinant FAP [1]; [5]) | SMILES | also measured
> 8.00 | > 8.00 | > 8.00 |  | CCCCNC(=O)N[C@H]1CSCc2cc(CSCCNC(=O)CN3CCN(CC(=O)O)CCN(CC(=O)O)CCN(CC(=O)O)CC3)cc(c2)CSC[C@@H](C(=O)O)NC(=O)[C@H](Cc2ccccc2)NC(=O)[C@H](CCC(N)=O)NC(=O)[C@H]([C@@H](C)O)NC(=O)[C@@H]2CCCN2C(=O)CN(C)C1=O [3BP-4607, nBu-CAyl-[Cys(tMeBn(DOTA-AET))-Nmg-Pro-Thr-Gln-Phe-Cys]-OH] ({NHBu-CO}-C[Sar]PTQFC-OH; linker 1-7 via TBMB(SCH2CH2NH-DOTA)) | 
 | > 8.00 | > 8.00 | > 8.00 | CCCCCC(=O)N[C@H]1CSCc2cc(CSCCNC(=O)CN3CCN(CC(=O)O)CCN(CC(=O)O)CCN(CC(=O)O)CC3)cc(c2)CSC[C@@H](C(=O)NCCCC(=O)O)NC(=O)[C@H](Cc2ccccc2)NC(=O)[C@H](CCC(N)=O)NC(=O)[C@H]([C@@H](C)O)NC(=O)[C@@H]2CCCN2C(=O)[C@@H]2CCCN2C1=O [3BP-3657, Hex-[Cys(tMeBn(DOTA-AET))-Pro-Pro-Thr-Gln-Phe-Cys]-Gab-OH] | 
 | > 8.00 | > 8.00 | > 8.00 | CCCCCC(=O)N[C@H]1CSCc2cc(CSCCNC(=O)CN3CCN(CC(=O)O)CCN(CC(=O)O)CCN(CC(=O)O)CC3)cc(c2)CSC[C@@H](C(=O)O)NC(=O)[C@H](Cc2cccc3ccccc23)NC(=O)[C@H](CCC(N)=O)NC(=O)[C@H]([C@@H](C)O)NC(=O)[C@@H]2CCCN2C(=O)[C@@H]2CCCN2C1=O [3BP-3650, Hex-[Cys(tMeBn(DOTA-AET))-Pro-Pro-Thr-Gln-1Ni-Cys]-OH] (Hexanoyl-CPPTQ[1Nal]C-OH; linker 1-7 via TBMB(SCH2CH2NH-DOTA)) | 
> 8.00 | > 8.00 | > 8.00 |  | CCCCNC(=O)N[C@H]1CSCc2cc(CSCCNC(=O)CN3CCN(CC(=O)O)CCN(CC(=O)O)CCN(CC(=O)O)CC3)cc(c2)CSC[C@@H](C(N)=O)NC(=O)[C@H](Cc2ccccc2)NC(=O)[C@H](CCC(N)=O)NC(=O)[C@H]([C@@H](C)O)NC(=O)[C@@H]2CCCN2C(=O)CN(C)C1=O [3BP-4621, nBu-CAyl-[Cys(tMeBn(DOTA-AET))-Nmg-Pro-Thr-Gln-Phe-Cys]-NH2] ({NHBu-CO}-C[Sar]PTQFC-NH2; linker 1-7 via TBMB(SCH2CH2NH-DOTA)) | 
 | > 8.00 | > 8.00 | > 8.00 | CCCCCC(=O)N[C@H]1CSCc2cc(CSCCNC(=O)CN3CCN(CC(=O)O)CCN(CC(=O)O)CCN(CC(=O)O)CC3)cc(c2)CSC[C@@H](C(=O)O)NC(=O)[C@H](Cc2ccccc2)NC(=O)[C@H](CCC(N)=O)NC(=O)[C@H]([C@@H](C)O)NC(=O)[C@@H]2C[C@@H](O)CN2C(=O)[C@@H]2CCCN2C1=O [3BP-3679, Hex-[Cys(tMeBn(DOTA-AET))-Pro-Hyp-Thr-Gln-Phe-Cys]-OH] | 
 | > 8.00 | > 8.00 | > 8.00 | CCCCCC(=O)N[C@H]1CSCc2cc(CSCCNC(=O)CN3CCN(CC(=O)O)CCN(CC(=O)O)CCN(CC(=O)O)CC3)cc(c2)CSC[C@@H](C(N)=O)NC(=O)[C@H](Cc2ccccc2)NC(=O)[C@H](CCC(N)=O)NC(=O)[C@H]([C@@H](C)O)NC(=O)[C@@H]2CCCN2C(=O)[C@@H]2CCCN2C1=O [3BP-3652, Hex-[Cys(tMeBn(DOTA-AET))-Pro-Pro-Thr-Gln-Phe-Cys]-NH2] | 
> 8.00 | > 8.00 | > 8.00 |  | CCCCOC(=O)N[C@H]1CSCc2cc(CSCCNC(=O)CN3CCN(CC(=O)O)CCN(CC(=O)O)CCN(CC(=O)O)CC3)cc(c2)CSC[C@@H](C(=O)O)NC(=O)[C@H](Cc2ccccc2)NC(=O)[C@H](CCC(N)=O)NC(=O)[C@H]([C@@H](C)O)NC(=O)[C@@H]2CCCN2C(=O)[C@@H]2CCCN2C1=O [3BP-3941, nBu-COyl-[Cys(tMeBn(DOTA-AET))-Pro-Pro-Thr-Gln-Phe-Cys]-OH] | 
 | > 8.00 | > 8.00 | > 8.00 | CCCCCC(=O)N[C@H]1CSCc2cc(CSCCNC(=O)CN3CCN(CC(=O)O)CCN(CC(=O)O)CCN(CC(=O)O)CC3)cc(c2)CSC[C@@H](C(=O)O)NC(=O)[C@H](Cc2ccccc2)NC(=O)[C@H](CCC(N)=O)NC(=O)[C@H]([C@@H](C)O)NC(=O)[C@@H]2CCCN2C(=O)CN(C)C1=O [3BP-3678, Hex-[Cys(tMeBn(DOTA-AET))-Nmg-Pro-Thr-Gln-Phe-Cys]-OH] (Hexanoyl-C[Sar]PTQFC-OH; linker 1-7 via TBMB(SCH2CH2NH-DOTA)) | 
 | > 8.00 | > 8.00 | > 8.00 | CCCCCC(=O)N[C@H]1CSCc2cc(CSCCNC(=O)CN3CCN(CC(=O)O)CCN(CC(=O)O)CCN(CC(=O)O)CC3)cc(c2)CSC[C@@H](C(=O)N[C@H](CC(=O)O)C(N)=O)NC(=O)[C@H](Cc2ccccc2)NC(=O)[C@H](CCC(N)=O)NC(=O)[C@H]([C@@H](C)O)NC(=O)[C@@H]2CCCN2C(=O)[C@@H]2CCCN2C1=O [3BP-3681, Hex-[Cys(tMeBn(DOTA-AET))-Pro-Pro-Thr-Gln-Phe-Cys]-asp-NH2] | 
 | > 8.00 | > 8.00 | > 8.00 | CCCCCC(=O)N[C@H]1CSCc2cccc(c2)CSC[C@@H](C(=O)N[C@@H](CC(=O)O)C(=O)NCCCOCCOCCOCCCNC(=O)CCC(=O)N[C@@H](CCCCNC(=O)CN2CCN(CC(=O)O)CCN(CC(=O)O)CCN(CC(=O)O)CC2)C(N)=O)NC(=O)[C@H](Cc2ccccc2)NC(=O)[C@H](CCC(=O)O)NC(=O)[C@H]([C@@H](C)O)NC(=O)[C@@H]2CCCN2C(=O)[C@@H]2CCCN2C1=O [3BP-3396, Hex-[Cys(3MeBn)-Pro-Pro-Thr-Glu-Phe-Cys]-Asp-Ttds-Lys(DOTA)-NH2] (Hexanoyl-CPPTEFCD-X17; linker 1-7 via mXylylene) | 
 | > 8.00 | > 8.00 | > 8.00 | CCCCCC(=O)N[C@H]1CSCc2cc(CSCCNC(=O)CN3CCN(CC(=O)O)CCN(CC(=O)O)CCN(CC(=O)O)CC3)cc(c2)CSC[C@@H](C(=O)N[C@H](CC(=O)O)Cc2ccccc2)NC(=O)[C@H](Cc2ccccc2)NC(=O)[C@H](CCC(N)=O)NC(=O)[C@H]([C@@H](C)O)NC(=O)[C@@H]2CCCN2C(=O)[C@@H]2CCCN2C1=O [3BP-3660, Hex-[Cys(tMeBn(DOTA-AET))-Pro-Pro-Thr-Gin-Phe-Cys]-Bhf-OH] | 
7.10 to 8.00 | > 8.00 | 7.10 to 8.00 |  | CCCC[C@H](NC(=O)CCC(=O)NCCCOCCOCCOCCCNC(=O)[C@H](CCC(=O)NC[C@H](O)[C@@H](O)[C@H](O)[C@H](O)CO)NC(=O)C(CNCCN)CNCCN)C(=O)N[C@H]1CSCc2cccc(c2)CSC[C@@H](C(=O)O)NC(=O)[C@H](Cc2ccccc2)NC(=O)[C@H](CCC(N)=O)NC(=O)[C@H]([C@@H](C)O)NC(=O)[C@@H]2CCCN2C(=O)[C@@H]2CCCN2C1=O [3BP-4246, N4Ac-Glu(AGLU)-Ttds-Nle-[Cys-(3MeBn)-Pro-Pro-Thr-Gln-Phe-Cys]-OH] | 
 | 6.10 to 7.00 |  |  | CCCCCC(=O)N[C@H]1CSCc2cc(CSCCNC(=O)CCC(=O)NCCCOCCOCCOCCCNC(=O)CCC(=O)NCCCOCCOCCOCCCNC(=O)CCC(=O)NCCCOCCOCCOCCCNC(=O)CCC(=O)NCCCOCCOCCOCCCNC(=O)c3ccc4c(c3)C(=O)OC43c4ccc(N)c(S(=O)(=O)O)c4Oc4c3ccc(N)c4S(=O)(=O)O)cc(c2)CSC[C@@H](C(=O)O)NC(=O)[C@H](Cc2ccccc2)NC(=O)[C@H](CCC(N)=O)NC(=O)[C@H]([C@@H](C)O)NC(=O)[C@@H]2CCCN2C(=O)[C@@H]2CCCN2C1=O [3BP-4232, Hex--[C(tMeBn(AF488--Ttds--Ttds--Ttds--Ttds--AET))-PPTQFC]-OH] | 

SMILES | pIC50 (Human recombinant FAP [1]; [4]) | pKd (Human recombinant FAP [2]) | pIC50 [3] | pIC50 (Human recombinant FAP [1]; [5]) | also measured
CCCCNC(=O)N[C@H]1CSCc2cc(cc(CN3CCN(C(=O)CN4CCN(CC(=O)O)CCN(CC(=O)O)CCN(CC(=O)O)CC4)CC3)c2)CSC[C@@H](C(N)=O)NC(=O)[C@H](Cc2ccccc2)NC(=O)[C@H](CCC(N)=O)NC(=O)[C@H]([C@@H](C)O)NC(=O)[C@@H]2CCCN2C(=O)[C@@H]2CCCN2C1=O [3BP-4565, nBu-CAyl-[Cys(tMeBn(DOTA-PP))-Pro-Pro-Thr-Gln-Phe-Cys]-NH2] | > 8.00 | > 8.00 | > 8.00 |  | 
CCCCCC(=O)N[C@H]1CSCc2cc(CSCCNC(=O)COCCOCCNC(=O)CCC(C(=O)O)N3CCN(CC(=O)O)CCN(CC(=O)O)CC3)cc(c2)CSC[C@@H](C(=O)O)NC(=O)[C@H](Cc2ccccc2)NC(=O)[C@H](CCC(N)=O)NC(=O)[C@H]([C@@H](C)O)NC(=O)[C@@H]2CCCN2C(=O)[C@@H]2CCCN2C1=O (stereo partly drawn) [3BP-4251, Hex-[Cys-(tMeBn(NODAGA-O2Oc-AET))-Pro-Pro-Thr-Gln-Phe-Cys]-OH] | > 8.00 | > 8.00 | > 8.00 |  | 
CCCCNC(=O)N[C@H]1CSCc2cc(cc(CN3CCN(C(=O)CN4CCN(CC(=O)O)CCN(CC(=O)O)CCN(CC(=O)O)CC4)CC3)c2)CSC[C@@H](C(=O)O)NC(=O)[C@H](Cc2ccccc2)NC(=O)[C@H](CCC(N)=O)NC(=O)[C@H]([C@@H](C)O)NC(=O)[C@@H]2CCCN2C(=O)[C@@H]2CCCN2C1=O [3BP-4564, nBu-CAyl-[Cys(tMeBn(DOTA-PP))-Pro-Pro-Thr-Gln-Phe-Cys]-OH] | > 8.00 | > 8.00 | > 8.00 |  | 
CCCC[C@H](NC(=O)CCC(=O)NCCCOCCOCCOCCCNC(=O)CCC(C(=O)O)N1CCN(CC(=O)O)CCN(CC(=O)O)CC1)C(=O)N[C@H]1CSCc2cccc(c2)CSCC(C(=O)O)NC(=O)[C@H](Cc2ccccc2)NC(=O)[C@H](CCC(N)=O)NC(=O)[C@H]([C@@H](C)O)NC(=O)[C@@H]2CCCN2C(=O)[C@@H]2CCCN2C1=O (stereo partly drawn) [3BP-4714, NODAGA-Ttds-Nle-[Cys(3MeBn)-Pro-Pro-Thr-Glu-Phe-Cys]-OH] |  |  | 7.10 to 8.00 |  | pIC50 (Human recombinant FAP [1]; pIC50 Category (activity), Recombinant human FAP): 7.10 to 8.00; tissue uptake at 0.25 h (in vivo; blood pool surrogate (BPS)): 1.52 %ID/g; tissue uptake at 1 h (in vivo; blood pool surrogate (BPS)): 0.65 %ID/g; tissue uptake at 3 h (in vivo; blood pool surrogate (BPS)): 0.32 %ID/g; tissue uptake at 0.25 h (in vivo; kidneys): 5 %ID/g; tissue uptake at 1 h (in vivo; kidneys): 3.82 %ID/g; tissue uptake at 3 h (in vivo; kidneys): 3.83 %ID/g; tissue uptake at 0.25 h (in vivo; tumor): 5.15 %ID/g; tissue uptake at 1 h (in vivo; tumor): 5.44 %ID/g; tissue uptake at 3 h (in vivo; tumor): 5.49 %ID/g
